The values that follow come from patent US8853245B2, “Orally bioavailable dabigatran prodrugs for the treatment of diseases” (Dritte Patentportfolio Beteiligungsgesellschaft mbH & Co. KG, priority 2011, dated 2014).

≈ marks a conversion by molar mass, not a printed value. Entries after “also recorded” stand apart in the source; their conditions may differ. Like-named read-outs stand apart in the source and are kept apart here.

Data set [1] can be described thus: Solubility in phosphate buffer at various pH values. To be noted: pH 2.0, preliminary test runs. The data set is classed as physicochemical.
Data set [2] in a line: Dabigatran in organ samples (liver and kidney) after oral administration. To be noted: rats, oral 50 mg/kg, 8 hours after administration. The data set is classed as in vivo. Here is the method: Slaughter ensued by guillotine decapitation 8 hours after the drug administration. The organs were subsequently removed. All organs were cleaned and frozen in 2-methylbutane cooled in dry ice. Liver, kidney, lung, spleen, heart, and brain were removed.
The organs were defrosted at room temperature and weighed. Depending on the respective organ, differing amounts of the tissues were prepared. About 1000 mg were used in case of the liver samples; about 500 mg in case of the kidney samples. Liver and kidney were examined since both organs participate in the activation of the prodrug and increased concentrations of dabigatran can therefore occur in same. Other organs are irrelevant for the bioactivation and were therefore not examined.
The organ samples (liver and kidney) were minced by means of a potter. For this purpose, each of the weighed tissues were minced with 1 ml aqua bidest for 5 min. The potter vessel was subsequently rinsed in each case with 1 ml of aqua bidest. The samples were transferred into reaction vessels and the same volume of acetonitrile was added in order to precipitate proteins. The samples were shaken for 45 min and subsequently centrifuged at 12,000 RPM for 15 min. […]
The solubilizing of the samples ensued with 400 μl of a mixture of methanol/aqua bidest (50/50). […] The concentration of dabigatran was determined from the supernatant by means of HPLC.

Details of data set [3]: species or system rats. To be noted: rat, in vivo. As to the method: Dabigatran was administered intravenously to 20 rats in a concentration of 10 mg/kg. Dabigatran amidoxime succinic acid ester (1), dabigatran amidoxime (2), and dabigatran etexilate were administered to 10 rats each in a concentration of 50 mg/kg as a suspension with Arabic gum (10% m/V) per gavage. 100 mM of potassium phosphate buffer of pH 9.0 was used with the dabigatran amidoxime succinic acid ester (1) in preparing the suspension so as to prevent premature cleavage of the succinyl ester in the acidic environment of the stomach. In addition, 3 rats were given dabigatran at a dosage of 50 mg/kg per gavage in order to determine the oral bioavailability of the active form itself.
After the intravenous administration, plasma samples were taken after 5, 10, 25, 50, 100, 200, and 400 min, respectively 30, 60, 90, 120, 240, 360, and 480 min after oral administration. For this purpose, 300 μl of whole blood was drawn using an insulin syringe and transferred into EDTA-coated CB 300 microvettes (Sarstedt, Nümbrecht). After each withdrawal, the sample was rinsed with 100 μl of 0.9% saline solution respectively with heparin solution (250 I.E./ml) at an interval of 60 min. The blood sample was briefly shaken and placed on ice until centrifugation (4° C.; 14,000 RPM; 10 min). The samples were stored further at −80° C.
The plasma samples were defrosted at room temperature. 5 μl of 1N HCl was prepared in each case and 55 μl of the plasma samples added by pipetting. The samples were subsequently shaken for 45 min in order to cleave the existing glucuronides. The plasma proteins were then precipitated with 55 μl of methanol and shaken for a further 30 min. The samples were centrifuged at 10,000 RPM for 15 min and the supernatant was transferred into HPLC vials. 10 μl was used in each case for the HPCL determinations.
Calibrations and analyses for recovering the dabigatran were performed in a phosphate buffer of pH 7.4, murine plasma respectively, so as to quantitatively evaluate the plasma samples.
The bioavailability of the different dabigatran prodrugs was calculated by means of the PK Solutions 2.0™ program using the plasma concentrations. Furthermore, the plasma half-life t1/2, the time of maximum plasma level tmax, as well as the maximum plasma concentration cmax were calculated.

Data set [4] is described as follows: Stability (ester hydrolysis) in murine plasma. The data set is classed as in vitro ADME. To be noted: 0.2 mM, 37° C., up to 150 min, listed as dabigatran amidoxime succinic acid ester (1). Here is the method:
(§1) Further analyses were conducted with human and murine plasma. 900 μl of the plasma was mixed with 100 μl of a 2 mM solution of dabigatran amidoxime succinic acid ester (1). The final concentration of dabigatran amidoxime succinic acid ester (1) was thus 0.2 mM. The samples were incubated at 37° C. in a shaking water bath and samples were taken after 0, 15, 30, 45, 60, 90, 120 and 150 min. For this purpose, 100 μl was drawn in each case and mixed with 100 μl acetonitrile. The samples were shaken, centrifuged for 5 min and the supernatant was measured via HPLC. The results are illustrated in FIGS. 2 and 3.

Data set [5] in a line: Stability (ester hydrolysis) in human plasma. The data set is classed as in vitro ADME. To be noted: 0.2 mM, 37° C., up to 150 min, listed as dabigatran amidoxime succinic acid ester (1). As to the method:
as §1

Data set [6] deals with albumin (Homo sapiens, UniProt P02768). The experiment in a line: Plasma protein binding (4% albumin solution, ultrafiltration). The data set is classed as in vitro ADME. To be noted: 10, 25 and 50 μM, 15 min at 37° C. As to the method:
The plasma protein binding was determined at three different concentrations (10, 25, and 50 μM). A 4% albumin solution was used as the protein solutions. 50 μl of a 10 times concentrated substance solution were in each case pipetted to 450 μl of the protein solution. Incubation ensued over 15 min in a shaking water bath at 37° C. Subsequently, the samples were transferred into ultrafiltration units (Vivaspin 500, 10 kDa cut off) and centrifuged for 15 min at 10,000 RPM. The filtrate was analyzed by HPLC. Additionally, a control which was not mixed with protein nor centrifuged was carried out for each concentration. A further control without protein addition which, however, was centrifuged by the filtration unit served to validate the methodology.

Data set [7] in a line: Solubility in phosphate buffer at various pH values. The data set is classed as physicochemical. To be noted: shaken 10 min; for solubility at 10 min: aqueous buffer, thermodynamic from solid. As to the method: An amount of the dabigatran amidoxime succinic acid ester (1) which is insoluble in 150 μl was dissolved in 50 mM of a phosphate buffer (pH 6.3, pH 7.4, respectively pH 9.0) and shaken for 10 min. Solubility was not determined at the 4.0 and 2.0 pH values due to the rapid hydrolysis of the succinyl ester at acidic pH values. 3 N HCl, respectively 10% KOH, was used to adjust the pH value. After the 10 min period, the undissolved portion was removed by centrifugation (13,000 RPM, 10 min) and the samples were immediately measured by HPLC. The evaluation of the solubility ensued via a calibration of dabigatran amidoxime succinic acid ester (1) (Table 1). Dabigatran etexilate and dabigatran amidoxime (2) were examined by comparison so as to be able to better judge the solubility as compared to previously described derivatives. Solubilities were determined analogously to the method described for compound (1).

The nature of data set [8]: Stability analysis at various pH values (phosphate buffer, HPLC). The data set is classed as physicochemical. To be noted: acidic medium (<pH 6). As to the method: A 0.2 mM solution of dabigatran amidoxime succinic acid ester (1) was prepared in 50 mM of a potassium phosphate buffer for the stability analyses. The examination took place at pH values of 2.0, 4.0, 6.3, 7.4 and 9.0. One sample was taken and immediately analyzed by HPLC every 30 min over a period of 360 min.

For data set [9] the following is noted: etexilate data from the literature; cited from earlier work.

Sequence of albumin (P02768 25-609, species assumed): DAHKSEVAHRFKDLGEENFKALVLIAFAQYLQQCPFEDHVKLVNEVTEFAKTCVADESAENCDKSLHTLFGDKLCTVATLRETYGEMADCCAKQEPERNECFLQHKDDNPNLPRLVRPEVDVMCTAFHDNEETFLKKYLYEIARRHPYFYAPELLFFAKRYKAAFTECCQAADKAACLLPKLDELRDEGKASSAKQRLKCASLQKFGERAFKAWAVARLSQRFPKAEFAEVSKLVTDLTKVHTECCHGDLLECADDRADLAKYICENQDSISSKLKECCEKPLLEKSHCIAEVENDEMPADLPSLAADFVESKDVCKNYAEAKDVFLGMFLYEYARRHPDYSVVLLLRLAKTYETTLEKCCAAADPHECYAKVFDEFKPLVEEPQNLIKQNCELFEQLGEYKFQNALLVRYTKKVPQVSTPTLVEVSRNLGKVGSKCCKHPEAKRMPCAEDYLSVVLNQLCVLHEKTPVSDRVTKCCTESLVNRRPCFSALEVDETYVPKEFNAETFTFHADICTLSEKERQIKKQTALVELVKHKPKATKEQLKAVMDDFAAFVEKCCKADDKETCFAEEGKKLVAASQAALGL

For `CCOC(=O)CCN(C(=O)c1ccc2c(c1)nc(CNc1ccc(/C(N)=N/OC(=O)CCC(=O)O)cc1)n2C)c1ccccn1`, the “solubility in acidic medium” value in data set [1] was “good solubility”. For the same compound, in data set [2], the “dabigatran concentration in liver samples compared to other prodrugs” value is “clearly lower”; the “dabigatran detected in liver and kidney” value was “small amounts”. The bioavailability in data set [3] is given as 5.5%±1.7%. Besides, in data set [3] (po, 50 mg/kg), the peak level (Cmax) was 2770 ± 550 nM, the “maximum plasma concentrations (range)” value was in the range of 1.8 to 3.7 µM, the “period of detectable dabigatran plasma levels” value is on record as 480 min and the “prodrug itself in plasma” value is “could not be identified”. Moreover, in [3] (po, 50 mg/kg), the t1/2 is 69.3 ± 30.4^+ min, the “time at which maximum plasma concentrations were reached (range)” value (shortened to “time”) was 30 to 60 min and the tmax is 48.0 ± 15.5^+ min. In addition, the “hydrolysis of the ester bond in plasma” value in data set [4] is “pronounced hydrolysis of the ester bond; also recorded: very marked ester cleavage”. The “hydrolysis of the ester bond in plasma” value in data set [5] is listed as “pronounced hydrolysis of the ester bond; also recorded: very marked ester cleavage”. In [6], this compound showed a fraction unbound at 15 min of approximately 0.78. Also, in [6] (listed as dabigatran amidoxime succinic acid ester (1)), the plasma protein binding is 21.8±5.3%. This compound had a solubility at 10 min in [7] (pH 6.3, 50 mM phosphate buffer) of 630 ± 290 µM (≈ 388 µg/mL). Moreover, the solubility at 10 min in data set [7] (pH 7.4, 50 mM phosphate buffer) came out at 4620 ± 830 µM (≈ 2840 µg/mL). This compound registered a solubility at 10 min in data set [7] (pH 9.0, 50 mM phosphate buffer) of 8160 ± 440 µM (≈ 5020 µg/mL). In addition, the “stability in acidic medium” value in data set [8] is on record as “rather instable”.

`Cn1c(CNc2ccc(C(N)=NO)cc2)nc2cc(C(=O)N(CCC(=O)O)c3ccccn3)ccc21` [Dabigatran amidoxime (2)] came in with a bioavailability in [3] of 4.1 ± 1.4 %. Also, in [3] (po, 50 mg/kg), the highest concentration (Cmax) was 2760 ± 1060 nM, the “maximum plasma concentrations (range)” value is 1.7 to 5.5 µM, the “period of detectable dabigatran plasma levels” value came out at 480 min and the “prodrug itself in plasma” value is “could not be identified”. In addition, in data set [3] (po, 50 mg/kg), the t1/2 is given as 108.1 ± 56.2^+ min, the “time” value is 30 to 60 min and the tmax amounted to 36.0 ± 12.6 min. This compound showed a plasma protein binding in data set [6] of 31.2±1.3%. This compound showed a solubility in data set [7] (pH 6.3, 50 mM phosphate buffer) of 145 ± 16 µM (≈ 70.7 µg/mL). In [7] (pH 7.4, 50 mM phosphate buffer), this compound had a solubility of 119 ± 5 µM (≈ 58 µg/mL). The solubility in data set [7] (pH 9.0, 50 mM phosphate buffer) is 111 ± 8 µM (≈ 54.1 µg/mL).

For `CCCCCCOC(=O)NC(=N)c1ccc(NCc2nc3cc(C(=O)N(CCC(=O)OCC)c4ccccn4)ccc3n2C)cc1` [Dabigatran etexilate], the bioavailability in [3] is listed as 7.2%±2.0%. In data set [3] (po, 50 mg/kg), the highest level (Cmax) was 3480 ± 640 nM, the “maximum plasma concentrations (range)” value was 2.3 to 4.5 µM, the “period of detectable dabigatran plasma levels” value is recorded as 480 min and the “prodrug itself in plasma” value was “could not be identified”. For the same compound, in data set [3] (po, 50 mg/kg), the t1/2 was 87.7 ± 27.5 min, the “time” value lay in the range of 30 to 90 min and the tmax is given as 57.0 ± 22.1 min. The compound also had a solubility at 10 min in data set [7] (pH 6.3, 50 mM phosphate buffer) of 3.6 ± 2 µM (≈ 2.26 µg/mL). In data set [7] (pH 7.4, 50 mM phosphate buffer), this compound gave a solubility at 10 min of 0.6 ± 0.4 µM (≈ 0.377 µg/mL). This compound returned a solubility at 10 min in data set [7] (pH 9.0, 50 mM phosphate buffer) of 0.4 ± 0.1 µM (≈ 0.251 µg/mL). Moreover, the “bioavailability described in the literature” value in [9] was 5-8%.

Turning to `[H]/N=C(/N)c1ccc(NCc2nc3cc(C(=O)N(CCC(=O)O)c4ccccn4)ccc3n2C)cc1` [Dabigatran], the “period of detectable plasma levels” value in data set [3] (iv, 10 mg/kg) worked out at 400 min. Also, in data set [3] (po, 50 mg/kg), the concentration peaked (Cmax) at 240 ± 130 nM, the bioavailability came out at 0.3 ± 0.2 %, the t1/2 is given as 58.0 ± 31.1^+ min and the tmax was found to be 105.0 ± 21.2 min.

Broadly, the bioavailability is dose-corrected exposure relative to a reference, in per cent. Lower therefore signals little systemic uptake. Broadly, the Cmax is the maximum level reached in the sampled fluid or tissue. Broadly, the fraction unbound is free concentration divided by total concentration. Read a high fraction unbound as weak binding. A word on the solubility: it is the dissolved amount per volume that the medium holds. High values mean much dissolved substance, low ones little dissolved substance.
